Source: PubChem BioAssay AID288 (DTP/NCI, 2004)
Values joined by “and” are separate entries in the source; they are usually repeats but may differ in a detail not shown here. Equal values may be shown once. Inconclusive results are not listed.

Test system: BDF1 mice, M5076 sarcoma s.c., survival/tumor T/C
Test: NCI In Vivo Anticancer Drug Screen. Data for tumor model Sarcoma M5076 (subcutaneous) in B6D2F1 (BDF1) mice
Method: The antitumor activity of compounds was measured in mice bearing transplantable tumors. Survival or tumor size were measured and the results are expressed as the measurement made in the treated group (T) divided by the measurement made in the vehicle treated control group (C). The tumor model used in this assay is Sarcoma M5076 (subcutaneous) in B6D2F1 (BDF1) mice

[1] = endpoint: mean tumor weight, dose: 37.5 mg/kg/injection, schedule: Q02DX011 (ip), vehicle: saline, higher = larger tumour
[2] = endpoint: median survival time, dose: 50.0 mg/kg/injection, schedule: Q01DX009 (ip), vehicle: saline with Tween-80, higher = longer survival
[3] = endpoint: median survival time, dose: 100.0 mg/kg/injection, schedule: Q01DX009 (ip), vehicle: saline with Tween-80, higher = longer survival
[4] = endpoint: median survival time, dose: 200.0 mg/kg/injection, schedule: Q01DX009 (ip), vehicle: saline with Tween-80, higher = longer survival
[5] = endpoint: median tumor weight (est.), dose: 50.0 mg/kg/injection, schedule: Q01DX009 (ip), vehicle: saline with Tween-80, higher = larger tumour
[6] = endpoint: median tumor weight (est.), dose: 100.0 mg/kg/injection, schedule: Q01DX009 (ip), vehicle: saline with Tween-80, higher = larger tumour
[7] = endpoint: median tumor weight (est.), dose: 200.0 mg/kg/injection, schedule: Q01DX009 (ip), vehicle: saline with Tween-80, higher = larger tumour

Cc1ncc([N+](=O)[O-])n1CCO
T/C (endpoint: median survival time, dose: 750.0 mg/kg/injection, schedule: Q01DX001 (ip), vehicle: saline, higher = longer survival): 116 % of control
T/C (endpoint: median survival time, dose: 1000.0 mg/kg/injection, schedule: Q01DX001 (ip), vehicle: saline with Tween-80, higher = longer survival): 105 % of control and 85 % of control
T/C (endpoint: median survival time, dose: 1500.0 mg/kg/injection, schedule: Q01DX001 (ip), vehicle: saline, higher = longer survival): 89 % of control and 90 % of control
T/C (endpoint: median survival time, dose: 2000.0 mg/kg/injection, schedule: Q01DX001 (ip), vehicle: saline with Tween-80, higher = longer survival): 91 % of control
T/C (endpoint: median survival time, dose: 2000.0 mg/kg/injection, schedule: Q01DX001 (ip), vehicle: saline, higher = longer survival): 87 % of control (2×) and 89 % of control
T/C (endpoint: median survival time, dose: 2500.0 mg/kg/injection, schedule: Q01DX001 (ip), vehicle: saline with Tween-80, higher = longer survival): 78 % of control

CCCNC(=O)ON1C(=O)C2C3C=CC(C3)C2C1=O (centres undefined)
T/C (endpoint: median survival time, dose: 3.12 mg/kg/injection, schedule: Q01DX009 (ip), vehicle: saline with Tween-80, higher = longer survival): 98 % of control
T/C (endpoint: median survival time, dose: 6.25 mg/kg/injection, schedule: Q01DX009 (ip), vehicle: saline with Tween-80, higher = longer survival): 95 % of control
T/C (endpoint: median survival time, dose: 12.5 mg/kg/injection, schedule: Q01DX009 (ip), vehicle: saline with Tween-80, higher = longer survival): 103 % of control
T/C (endpoint: median tumor weight (est.), dose: 3.12 mg/kg/injection, schedule: Q01DX009 (ip), vehicle: saline with Tween-80, higher = larger tumour): 93 % of control
T/C (endpoint: median tumor weight (est.), dose: 6.25 mg/kg/injection, schedule: Q01DX009 (ip), vehicle: saline with Tween-80, higher = larger tumour): 107 % of control

O=C1NC2(CCCCC2)C(=O)N1CCN(CCCl)CCCl
T/C (endpoint: median tumor weight (est.), dose: 16.0 mg/kg/injection, schedule: Q01DX009 (ip), vehicle: saline with Tween-80, higher = larger tumour): 10 % of control

[N-]=[N+]=CC(=O)CCC(N)C(=O)O (centres undefined)
T/C (endpoint: median survival time, dose: 1.0 mg/kg/injection, schedule: Q04DX005 (ip), vehicle: saline, higher = longer survival): 150 % of control and 159 % of control
T/C (endpoint: median survival time, dose: 2.0 mg/kg/injection, schedule: Q04DX005 (ip), vehicle: saline, higher = longer survival): 166 % of control and 167 % of control
T/C (endpoint: median survival time, dose: 4.0 mg/kg/injection, schedule: Q04DX005 (ip), vehicle: saline, higher = longer survival): 181 % of control and 183 % of control
T/C (endpoint: median survival time, dose: 8.0 mg/kg/injection, schedule: Q04DX005 (ip), vehicle: saline, higher = longer survival): 186 % of control and 188 % of control
T/C (endpoint: median survival time, dose: 16.0 mg/kg/injection, schedule: Q04DX005 (ip), vehicle: saline, higher = longer survival): 98 % of control

O=C(O)CCCc1ccc(N(CCCl)CCCl)cc1
T/C (endpoint: median survival time, dose: 1.5 mg/kg/injection, schedule: Q02DX030 (ip), vehicle: saline with Tween-80, higher = longer survival): 158 % of control
T/C (endpoint: median survival time, dose: 3.0 mg/kg/injection, schedule: Q02DX030 (ip), vehicle: saline with Tween-80, higher = longer survival): 194 % of control
T/C (endpoint: median survival time, dose: 3.0 mg/kg/injection, schedule: Q04DX006 (ip), vehicle: saline with Tween-80, higher = longer survival): 100 % of control
T/C (endpoint: median survival time, dose: 6.0 mg/kg/injection, schedule: Q04DX006 (ip), vehicle: saline with Tween-80, higher = longer survival): 117 % of control
T/C (endpoint: median survival time, dose: 12.0 mg/kg/injection, schedule: Q04DX006 (ip), vehicle: saline with Tween-80, higher = longer survival): 124 % of control

N[C@@H](Cc1ccc(N(CCCl)CCCl)cc1)C(=O)O
T/C (endpoint: median survival time, dose: 0.75 mg/kg/injection, schedule: Q04DX006 (ip), vehicle: saline, higher = longer survival): 105 % of control
T/C (endpoint: median survival time, dose: 1.5 mg/kg/injection, schedule: Q04DX006 (ip), vehicle: saline, higher = longer survival): 111 % of control
T/C (endpoint: median survival time, dose: 3.0 mg/kg/injection, schedule: Q02DX033 (ip), vehicle: saline, higher = longer survival): 230 % of control
T/C (endpoint: median survival time, dose: 3.0 mg/kg/injection, schedule: Q04DX006 (ip), vehicle: saline, higher = longer survival): 121 % of control
T/C (endpoint: median survival time, dose: 3.24 mg/kg/injection, schedule: Q01DX001 (ip), vehicle: saline, higher = longer survival): 154 % of control and 155 % of control

CC1CCC(NC(=O)N(CCCl)N=O)CC1 (centres undefined)
T/C (endpoint: median survival time, dose: 2.5 mg/kg/injection, schedule: Q04DX009 (ip), vehicle: saline with Tween-80, higher = longer survival): 109 % of control
T/C (endpoint: median survival time, dose: 5.0 mg/kg/injection, schedule: Q02DX011 (ip), vehicle: Klucel (hydroxypropylcellulose) (HPC), higher = longer survival): 296 % of control
T/C (endpoint: median survival time, dose: 5.0 mg/kg/injection, schedule: Q02DX033 (ip), vehicle: saline with Tween-80, higher = longer survival): 230 % of control
T/C (endpoint: median survival time, dose: 5.0 mg/kg/injection, schedule: Q04DX005 (ip), vehicle: other, higher = longer survival): 191 % of control
T/C (endpoint: median survival time, dose: 5.0 mg/kg/injection, schedule: Q04DX009 (ip), vehicle: saline with Tween-80, higher = longer survival): 150 % of control
T/C (endpoint: median survival time, dose: 10.0 mg/kg/injection, schedule: Q02DX033 (ip), vehicle: saline with Tween-80, higher = longer survival): 252 % of control
T/C (endpoint: median survival time, dose: 10.0 mg/kg/injection, schedule: Q04DX005 (ip), vehicle: other, higher = longer survival): 233 % of control
T/C (endpoint: median survival time, dose: 10.0 mg/kg/injection, schedule: Q04DX009 (ip), vehicle: saline with Tween-80, higher = longer survival): 298 % of control
T/C (endpoint: median survival time, dose: 20.0 mg/kg/injection, schedule: Q01DX003 (ip), vehicle: saline with Tween-80, higher = longer survival): 160 % of control
T/C (endpoint: median survival time, dose: 20.0 mg/kg/injection, schedule: Q04DX009 (ip), vehicle: saline with Tween-80, higher = longer survival): 320 % of control
T/C (endpoint: median survival time, dose: 30.0 mg/kg/injection, schedule: Q01DX001 (ip), vehicle: saline with Tween-80, higher = longer survival): 154 % of control and 171 % of control
T/C (endpoint: median survival time, dose: 30.0 mg/kg/injection, schedule: Q01DX001 (oral), vehicle: saline with Tween-80, higher = longer survival): 160 % of control and 191 % of control
T/C (endpoint: median survival time, dose: 40.0 mg/kg/injection, schedule: Q01DX001 (oral), vehicle: saline with Tween-80, higher = longer survival): 179 % of control and 237 % of control (2×)
T/C (endpoint: median survival time, dose: 50.0 mg/kg/injection, schedule: Q01DX001 (ip), vehicle: saline with Tween-80, higher = longer survival): 153 % of control and 226 % of control (2×)
T/C (endpoint: median survival time, dose: 50.0 mg/kg/injection, schedule: Q01DX001 (oral), vehicle: saline with Tween-80, higher = longer survival): 194 % of control and 229 % of control (2×)
T/C (endpoint: median survival time, dose: 60.0 mg/kg/injection, schedule: Q01DX001 (oral), vehicle: saline with Tween-80, higher = longer survival): 229 % of control (2×) and 233 % of control

Nc1nncs1
T/C (endpoint: mean tumor weight, dose: 18.8 mg/kg/injection, schedule: Q02DX011 (ip), vehicle: saline, higher = larger tumour): 43 % of control
T/C [1]: 3 % of control
T/C (endpoint: median survival time, dose: 6.25 mg/kg/injection, schedule: Q01DX009 (ip), vehicle: saline, higher = longer survival): 103 % of control
T/C (endpoint: median survival time, dose: 12.5 mg/kg/injection, schedule: Q01DX009 (ip), vehicle: saline, higher = longer survival): 111 % of control
T/C (endpoint: median survival time, dose: 25.0 mg/kg/injection, schedule: Q01DX009 (ip), vehicle: saline, higher = longer survival): 121 % of control
T/C (endpoint: median survival time, dose: 50.0 mg/kg/injection, schedule: Q01DX009 (ip), vehicle: saline, higher = longer survival): 122 % of control
T/C (endpoint: median tumor weight (est.), dose: 6.25 mg/kg/injection, schedule: Q01DX009 (ip), vehicle: saline, higher = larger tumour): 75 % of control
T/C (endpoint: median tumor weight (est.), dose: 12.5 mg/kg/injection, schedule: Q01DX009 (ip), vehicle: saline, higher = larger tumour): 53 % of control
T/C (endpoint: median tumor weight (est.), dose: 18.8 mg/kg/injection, schedule: Q02DX011 (ip), vehicle: saline, higher = larger tumour): 47 % of control
T/C (endpoint: median tumor weight (est.), dose: 25.0 mg/kg/injection, schedule: Q01DX009 (ip), vehicle: saline, higher = larger tumour): 22 % of control

CCCCN1C(=O)/C(=C/c2ccccc2OC)SC1=S
T/C [2]: 103 % of control
T/C [3]: 107 % of control
T/C [4]: 93 % of control
T/C [5]: 98 % of control
T/C [6]: 97 % of control
T/C [7]: 107 % of control

CCCCOc1ccc(-n2c(=O)[nH]c3ccccc3c2=O)cc1
T/C [2]: 101 % of control
T/C [3]: 94 % of control
T/C [4]: 101 % of control
T/C [5]: 97 % of control
T/C [6]: 100 % of control
T/C [7]: 105 % of control

O=C1N=C(Oc2ccccc2)SC1=O
T/C (endpoint: median survival time, dose: 50.0 mg/kg/injection, schedule: Q04DX003 (ip), vehicle: saline with Tween-80, higher = longer survival): 106 % of control

COc1cc2cc3c4cc(OC)c(OC)cc4cc[n+]3c(C)c2cc1OC (tested in a mixture with another compound)
T/C [1]: 64 % of control
T/C (endpoint: mean tumor weight, dose: 75.0 mg/kg/injection, schedule: Q02DX011 (ip), vehicle: saline, higher = larger tumour): 45 % of control
T/C (endpoint: mean tumor weight, dose: 150.0 mg/kg/injection, schedule: Q02DX011 (ip), vehicle: saline, higher = larger tumour): 13 % of control

Cc1c(N)nc([C@H](CC(N)=O)NC[C@H](N)C(N)=O)nc1C(=O)N[C@H](C(=O)N[C@H](C)[C@@H](O)[C@H](C)C(=O)N[C@H](C(=O)NCCc1nc(-c2nc(C(=O)NCCC[S+](C)C)cs2)cs1)[C@@H](C)O)C(OC1OC(CO)C(O)C(O)C1OC1OC(CO)C(O)C(OC(N)=O)C1O)c1cnc[nH]1 (some centres undefined)
T/C (endpoint: median survival time, dose: 1.6 mg/kg/injection, schedule: Q04DX009 (ip), vehicle: saline, higher = longer survival): 108 % of control
T/C (endpoint: median survival time, dose: 3.2 mg/kg/injection, schedule: Q04DX009 (ip), vehicle: saline, higher = longer survival): 115 % of control

NCCCNCCSP(=O)(O)O
T/C (endpoint: median survival time, dose: 25.0 mg/kg/injection, schedule: Q02DX011 (ip), vehicle: saline, higher = longer survival): 116 % of control
T/C (endpoint: median survival time, dose: 50.0 mg/kg/injection, schedule: Q02DX011 (ip), vehicle: saline, higher = longer survival): 106 % of control
T/C (endpoint: median survival time, dose: 100.0 mg/kg/injection, schedule: Q02DX011 (ip), vehicle: saline, higher = longer survival): 96 % of control
